The structures appear in SMILES notation.

One data set has as its target melatonin receptor. Nature of the data set: Action of inhibiting 2-[^125 I]iodomelatonin binding (forebrain membrane sample). Details: species or system 7-days-old chicken (white leghorn). To be noted: 80 pM 2-[^125 I]iodomelatonin, chicken forebrain membranes, 90 minutes at 25° C., pH 7.7; non-specific binding with 10 μM melatonin; log-probit analysis; read-out: IC50 (50% inhibiting concentration), inhibition of 2-[^125 I]iodomelatonin binding. As for the experimental part: Action of inhibiting 2-[^125 I]iodomelatonin binding
The forebrains of 7-days-old chicken (white leghorn) were homogenized with ice-cold assay buffer (50 mM Tris-HCl, pH 7.7 at 25° C.) and centrifuged at 44,000×g for 10 minutes at 4° C. The pellet was washed once with the same buffer. For the assay, the frozen tissue pellet was thawed and homogenized with the assay buffer to make a protein concentration of 0.3-0.4 mg/ml. In this way, the membrane sample was prepared. The membrane sample was incubated with a test compound and a ligand (80 pM 2-[^125 I]iodomelatonin, about 100,000 dpm) in a total volume of 0.5 ml for 90 minutes at 25° C. The reaction was terminated by adding 3 ml of ice-cold assay buffer immediately followed by vacuum filtration on Whatman GF/B which was further washed twice with 3 ml of ice-cold assay buffer. The radioactivity on the filter was determined by means of γ-counter. […] The 50% inhibiting concentration (IC50) was determined by the log-probit analysis.

The subject of another data set is central nervous system. To be noted: administered peripherally; Bioorganic & Medicinal Chemistry Letters, Vol. 4, p. 1485 (1994); cited from earlier work.
Another data set relates to metabolic enzymes. Conditions: Rinsho Kensa, Vol. 38, No. 11 (1994); cited from earlier work.

As to `COc1ccc2nc(Cl)cc(CCNC(=O)C(F)(F)F)c2c1` [compound 3], the IC50 on melatonin receptor is 8.9 nM.

Take `COc1ccc2[nH]cc(CCNC(C)=O)c2c1` [melatonin, N-acetyl-5-methoxytryptamine]: the “activity on central nervous system” value in the data set on central nervous system was “inactive”. The “metabolism by metabolic enzymes in a living body” value in the data set on metabolic enzymes is on record as “readily metabolized”.

With `COc1ccc2nc(Cl)cc(CCNC(C)=O)c2c1` [Working Example 1, N-[2-(2-chloro-6-methoxyquinolin-4-yl)ethyl]acetamide], at melatonin receptor, the IC50 amounted to 8.4 nM.

The values above are taken from patent US5708005A, “Quinolines, their production and use” (priority 1995, dated 1998).
